Measurements taken from ChEMBL document CHEMBL1154064, “Synthesis and DNA cleavage activity of 2-hydrazinyl-1,4,5,6-tetrahydropyrimidine containing hydroxy group” (2009).
Calls of active or inactive are those of the source. The calls are words filed in the database; no cut-off is given here.

How the values were obtained:
Nucleic Acid [1] = assay: Binding affinity to Escherichia coli pUC19 DNA assessed as form 1 DNA level at 0.130 mM after 8.08 hrs by agarose gel electrophoresis; format: nucleic-acid assay
Nucleic Acid [2] = assay: Binding affinity to Escherichia coli pUC19 DNA assessed as form 2 DNA level at 0.130 mM after 11.30 hrs by agarose gel electrophoresis; format: nucleic-acid assay
Nucleic Acid [3] = assay: Binding affinity to Escherichia coli pUC19 DNA assessed as form 1 DNA level at 0.130 mM after 23.52 hrs by agarose gel electrophoresis; format: nucleic-acid assay
Nucleic Acid [4] = assay: Binding affinity to Escherichia coli pUC19 DNA assessed as form 2 DNA level at 0.130 mM after 23.52 hrs by agarose gel electrophoresis; format: nucleic-acid assay
Nucleic Acid [5] = assay: Binding affinity to Escherichia coli pUC19 DNA assessed as form 1 DNA level at 0.175 mM after 23.12 hrs by agarose gel electrophoresis; format: nucleic-acid assay
Nucleic Acid [6] = assay: Binding affinity to Escherichia coli pUC19 DNA assessed as form 2 DNA level at 0.175 mM after 23.12 hrs by agarose gel electrophoresis; format: nucleic-acid assay
Nucleic Acid [7] = assay: Binding affinity to Escherichia coli pUC19 DNA assessed as form 1 DNA level at 0.175 mM after 25.35 hrs by agarose gel electrophoresis; format: nucleic-acid assay
Nucleic Acid [8] = assay: Binding affinity to Escherichia coli pUC19 DNA assessed as form 1 DNA level at 0.262 mM by agarose gel electrophoresis; format: nucleic-acid assay
Nucleic Acid [9] = assay: Binding affinity to Escherichia coli pUC19 DNA assessed as form 2 DNA level at 0.262 mM by agarose gel electrophoresis; format: nucleic-acid assay
Nucleic Acid [10] = assay: Binding affinity to Escherichia coli pUC19 DNA assessed as form 1 DNA level at 0.262 mM after 23.02 hrs by agarose gel electrophoresis; format: nucleic-acid assay
Nucleic Acid [11] = assay: Binding affinity to Escherichia coli pUC19 DNA assessed as form 2 DNA level at 0.175 mM after 29.33 hrs by agarose gel electrophoresis; format: nucleic-acid assay
Nucleic Acid [12] = assay: Binding affinity to Escherichia coli pUC19 DNA assessed as form 1 DNA level at 0.262 mM after 24.08 hrs by agarose gel electrophoresis; format: nucleic-acid assay
Nucleic Acid [13] = assay: Binding affinity to Escherichia coli pUC19 DNA assessed as form 2 DNA level at 0.320 mM after 9.07 hrs by agarose gel electrophoresis; format: nucleic-acid assay
Nucleic Acid [14] = assay: Binding affinity to Escherichia coli pUC19 DNA assessed as form 2 DNA level at 0.320 mM after 13.07 hrs by agarose gel electrophoresis; format: nucleic-acid assay
Nucleic Acid [15] = assay: Binding affinity to Escherichia coli pUC19 DNA assessed as form 1 DNA level at 0.262 mM after 25.02 hrs by agarose gel electrophoresis; format: nucleic-acid assay
Nucleic Acid [16] = assay: Binding affinity to Escherichia coli pUC19 DNA assessed as form 1 DNA level at 0.320 mM after 23.12 hrs by agarose gel electrophoresis; format: nucleic-acid assay
Nucleic Acid [17] = assay: Binding affinity to Escherichia coli pUC19 DNA assessed as form 2 DNA level at 0.320 mM after 25.35 hrs by agarose gel electrophoresis; format: nucleic-acid assay
Nucleic Acid [18] = assay: Binding affinity to Escherichia coli pUC19 DNA assessed as form 2 DNA level at 0.262 mM after 25.02 hrs by agarose gel electrophoresis; format: nucleic-acid assay
Nucleic Acid [19] = assay: Binding affinity to Escherichia coli pUC19 DNA assessed as form 1 DNA level at 0.320 mM after 25.35 hrs by agarose gel electrophoresis; format: nucleic-acid assay
Nucleic Acid [20] = assay: Binding affinity to Escherichia coli pUC19 DNA assessed as form 1 DNA level at 0.262 mM after 28.18 hrs by agarose gel electrophoresis; format: nucleic-acid assay
Nucleic Acid [21] = assay: Binding affinity to Escherichia coli pUC19 DNA assessed as form 1 DNA level at 0.320 mM after 4.95 hrs by agarose gel electrophoresis; format: nucleic-acid assay
Nucleic Acid [22] = assay: Binding affinity to Escherichia coli pUC19 DNA assessed as form 1 DNA level at 0.349 mM after 11.33 hrs by agarose gel electrophoresis; format: nucleic-acid assay
Nucleic Acid [23] = assay: Binding affinity to Escherichia coli pUC19 DNA assessed as form 1 DNA level at 0.320 mM after 29.33 hrs by agarose gel electrophoresis; format: nucleic-acid assay
Nucleic Acid [24] = assay: Binding affinity to Escherichia coli pUC19 DNA assessed as form 2 DNA level at 0.349 mM after 28.18 hrs by agarose gel electrophoresis; format: nucleic-acid assay
Nucleic Acid [25] = assay: Binding affinity to Escherichia coli pUC19 DNA assessed as form 2 DNA level at 0.463 mM by agarose gel electrophoresis; format: nucleic-acid assay
Nucleic Acid [26] = assay: Binding affinity to supercoiled Escherichia cloli pUC19 DNA assessed as formation of nicked circular DNA at 1.10 mM at pH 6.0 to 8.5 for 24 hrs by agarose gel electrophoresis; format: nucleic-acid assay; details: Escherichia coli
Nucleic Acid [27] = assay: Binding affinity to supercoiled Escherichia coli pUC19 DNA assessed as formation of nicked circular DNA at 1.10 mM at pH 6.0 for 24 hrs in presence of tertiary butyl hydroxide by agarose gel electrophoresis; format: nucleic-acid assay
HeLa = assay: Growth inhibition of human HeLa cells at 100 uM after 72 hrs by MTT assay; format: functional; set-up: scale not given: the % may be the effect or the level left
HL-60 = assay: Growth inhibition of human HL60 cells at 1000 uM after 72 hrs by MTT assay; format: functional; set-up: scale not given: the % may be the effect or the level left
Nucleic Acid [28] = assay: Binding affinity to Escherichia coli pUC19 DNA assessed as form 1 DNA level at 0.130 mM by agarose gel electrophoresis; format: nucleic-acid assay
Nucleic Acid [29] = assay: Binding affinity to Escherichia coli pUC19 DNA assessed as form 2 DNA level at 0.463 mM after 27.33 hrs by agarose gel electrophoresis; format: nucleic-acid assay
Nucleic Acid [30] = assay: Binding affinity to Escherichia coli pUC19 DNA assessed as form 1 DNA level at 0.463 mM after 31.48 hrs by agarose gel electrophoresis; format: nucleic-acid assay
Nucleic Acid [31] = assay: Binding affinity to Escherichia coli pUC19 DNA assessed as form 2 DNA level at 0.698 mM after 6.42 hrs by agarose gel electrophoresis; format: nucleic-acid assay
Nucleic Acid [32] = assay: Binding affinity to Escherichia coli pUC19 DNA assessed as form 2 DNA level at 0.698 mM after 8.45 hrs by agarose gel electrophoresis; format: nucleic-acid assay
Nucleic Acid [33] = assay: Binding affinity to Escherichia coli pUC19 DNA assessed as form 2 DNA level at 0.698 mM after 12.13 hrs by agarose gel electrophoresis; format: nucleic-acid assay
Nucleic Acid [34] = assay: Binding affinity to Escherichia coli pUC19 DNA assessed as form 2 DNA level at 0.698 mM after 23.80 hrs by agarose gel electrophoresis; format: nucleic-acid assay
Nucleic Acid [35] = assay: Binding affinity to Escherichia coli pUC19 DNA assessed as form 1 DNA level at 0.463 mM after 9.07 hrs by agarose gel electrophoresis; format: nucleic-acid assay
Nucleic Acid [36] = assay: Binding affinity to Escherichia coli pUC19 DNA assessed as form 2 DNA level at 0.463 mM after 13.07 hrs by agarose gel electrophoresis; format: nucleic-acid assay
Nucleic Acid [37] = assay: Binding affinity to Escherichia coli pUC19 DNA assessed as form 1 DNA level at 0.463 mM after 25.35 hrs by agarose gel electrophoresis; format: nucleic-acid assay
Nucleic Acid [38] = assay: Binding affinity to Escherichia coli pUC19 DNA assessed as form 1 DNA level at 0.463 mM after 27.33 hrs by agarose gel electrophoresis; format: nucleic-acid assay

Activity (Nucleic Acid [1]): 83.8%
Activity (Nucleic Acid [2]): 21.8%
Activity (Nucleic Acid [3]): 74%
Activity (Nucleic Acid [4]): 26%
Activity (Nucleic Acid [5]): 80.8%
Activity (Nucleic Acid [6]): 19.2%
Activity (Nucleic Acid [7]): 78.9%
Activity (Nucleic Acid [8]): 97.2%
Activity (Nucleic Acid [9]): 2.81%
Activity (Nucleic Acid [10]): 90.1%
Activity (Nucleic Acid [11]): 23.7%
Activity (Nucleic Acid [12]): 89.5%
Activity (Nucleic Acid [13]): 91.7%
Activity (Nucleic Acid [14]): 87.8%
Activity (Nucleic Acid [15]): 88.1%
Activity (Nucleic Acid [16]): 68%
Activity (Nucleic Acid [17]): 69.8%
Activity (Nucleic Acid [18]): 11.9%
Activity (Nucleic Acid [19]): 64%
Activity (Nucleic Acid [20]): 84.1%
Activity (Nucleic Acid [21]): 94%
Activity (Nucleic Acid [22]): 90.9%
Activity (Nucleic Acid [23]): 59%
Activity (Nucleic Acid [24]): 34.4%
Activity (Nucleic Acid [25]): 3.75%
Activity (Nucleic Acid [26]): Active
Activity (Nucleic Acid [27]): inactive
Activity (Nucleic Acid [28]): 88.6%
Activity (Nucleic Acid [29]): 40.6%
Activity (Nucleic Acid [30]): 51.1%
Activity (Nucleic Acid [31]): 13.4%
Activity (Nucleic Acid [32]): 15.2%
Activity (Nucleic Acid [33]): 23%
Activity (Nucleic Acid [34]): 45%
Activity (Nucleic Acid [35]): 83.3%
Activity (Nucleic Acid [36]): 22.5%
Activity (Nucleic Acid [37]): 60.2%
Activity (Nucleic Acid [38]): 59.4%
SMILES: Cl.Cl.NNC1=NCC(O)CN1 (stereo not given)
Activity (HeLa): 0%
Activity (HL-60): 91%
